Experimental data as given in article doi:10.1101/2021.06.18.448987v1 (biorxiv, 2021).
Read-outs that look alike come from different tables or passages of the source.

Key:
AnaGlgC [1] = target: T1, AnaGlgC (Nostoc sp. PCC 7120 = FACHB-418, UniProt P30521); assay: Malachite Green Pi release with inorganic pyrophosphatase, ADP-Glc synthesis; type: biochemical
T1 sequence (P30521 1-429): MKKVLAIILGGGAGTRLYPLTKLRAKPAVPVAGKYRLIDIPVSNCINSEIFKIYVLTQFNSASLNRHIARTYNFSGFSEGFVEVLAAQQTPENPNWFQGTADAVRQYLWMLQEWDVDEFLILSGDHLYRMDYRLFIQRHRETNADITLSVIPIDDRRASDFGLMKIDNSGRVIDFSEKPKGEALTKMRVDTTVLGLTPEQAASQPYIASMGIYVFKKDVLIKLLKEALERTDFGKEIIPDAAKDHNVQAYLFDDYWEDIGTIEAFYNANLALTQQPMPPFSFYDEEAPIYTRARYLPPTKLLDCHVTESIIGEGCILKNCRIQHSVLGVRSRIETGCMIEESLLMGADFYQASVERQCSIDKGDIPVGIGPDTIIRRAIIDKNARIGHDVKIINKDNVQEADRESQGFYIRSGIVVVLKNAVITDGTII

AnaGlgC [2] = target: T1, AnaGlgC; assay: biochemical
inMelGlgC [3] = assay: activity assay, ADP-Glc synthesis; type: biochemical, Candidatus Melainabacteria bacterium MEL.A1; conditions: read-out: I0.5; inhibitor; 10 mM MgCl2; MOPS pH 8.0; 37 °C
flMelGlgC [4] = assay: activity assay, ADP-Glc synthesis; type: biochemical, Candidatus Melainabacteria bacterium GWF2_37_15; conditions: read-out: I0.5; inhibitor; 10 mM MgCl2; MOPS pH 8.0; 37 °C
flMelGlgC [5] = conditions: read-out: S0.5, no effector, 10 mM MgCl2, MOPS pH 8.0, 37 °C
inMelGlgC [6] = conditions: read-out: S0.5, no effector, 10 mM MgCl2, MOPS pH 8.0, 37 °C
inMelGlgC [7] = assay: Malachite Green Pi release with inorganic pyrophosphatase, ADP-Glc synthesis; type: biochemical, Candidatus Melainabacteria bacterium MEL.A1; conditions: read-out: A0.5; allosteric activator; 10 mM MgCl2; MOPS pH 8.0; 37 °C
flMelGlgC [8] = assay: as above; type: biochemical, Candidatus Melainabacteria bacterium GWF2_37_15; conditions: read-out: A0.5; allosteric activator; 10 mM MgCl2; MOPS pH 8.0; 37 °C
AnaGlgC [9] = target: T1, AnaGlgC; assay: coupled spectrophotometric assay; type: biochemical
purified protein [10] = substrate: O=P(O)(O)O[C@H]1O[C@H](CO)[C@@H](O)[C@H](O)[C@H]1O; assay: purified protein; conditions: no effector, saturating ATP, 10 mM MgCl2, MOPS pH 8.0, 37 °C
purified protein [11] = substrate: Nc1ncnc2c1ncn2[C@@H]1O[C@H](COP(=O)(O)OP(=O)(O)OP(=O)(O)O)[C@@H](O)[C@H]1O; assay: purified protein; conditions: no effector, saturating Glc-1P, 10 mM MgCl2, MOPS pH 8.0, 37 °C
[12] = read-out: A0.5, allosteric activator, 10 mM MgCl2, MOPS pH 8.0, 37 °C

O=C(O)[C@H](O)COP(=O)(O)O [3-PGA]
EC50 (AnaGlgC [1]): 200 µM
EC50 (AnaGlgC [2]): 190 ± 90 µM

Nc1ncnc2c1ncn2[C@@H]1O[C@H](COP(=O)(O)OP(=O)(O)O)[C@@H](O)[C@H]1O [ADP]
IC50 (inMelGlgC [3]): 2300 ± 900 µM
IC50 (flMelGlgC [4]): 1440 ± 80 µM

Nc1ncnc2c1ncn2[C@@H]1O[C@H](COP(=O)(O)OP(=O)(O)OP(=O)(O)O)[C@@H](O)[C@H]1O [ATP]
Km (flMelGlgC [5]; saturating Glc-1P): 340 ± 50 µM
Km (inMelGlgC [6]; saturating Glc-1P): 250 ± 10 µM

O=P(O)(O)OC[C@H]1OC(O)(CO)[C@@H](O)[C@@H]1O (stereo partly shown) [Fru-6P]
EC50 (AnaGlgC [1]; [12]): 900 ± 100 µM
EC50 (inMelGlgC [7]): 440 ± 50 µM
EC50 (flMelGlgC [8]): 1700 ± 100 µM

O=P(O)(O)O[C@H]1O[C@H](CO)[C@@H](O)[C@H](O)[C@H]1O [Glc-1P]
Km (flMelGlgC [5]; saturating ATP): 2100 ± 200 µM
Km (inMelGlgC [6]; saturating ATP): 320 ± 30 µM

O=P(O)(O)OC[C@H]1OC(O)[C@H](O)[C@@H](O)[C@@H]1O (stereo partly shown) [Glc-6P]
EC50 (AnaGlgC [1]; [12]): 1450 ± 160 µM
EC50 (inMelGlgC [7]): ~300 µM
EC50 (flMelGlgC [8]): ~300 µM

O=P(O)(O)OC[C@H]1OC(O)[C@@H](O)[C@@H](O)[C@@H]1O (stereo partly shown) [Man-6P]
EC50 (inMelGlgC [7]): 520 ± 20 µM
EC50 (flMelGlgC [8]): 450 ± 40 µM

O=P(O)(O)O [Pi]
IC50 (AnaGlgC [9]): 90 µM

B1: AnaGlgC (Nostoc sp. PCC 7120 = FACHB-418) (protein)
chain: MKKVLAIILGGGAGTRLYPLTKLRAKPAVPVAGKYRLIDIPVSNCINSEIFKIYVLTQFNSASLNRHIARTYNFSGFSEGFVEVLAAQQTPENPNWFQGTADAVRQYLWMLQEWDVDEFLILSGDHLYRMDYRLFIQRHRETNADITLSVIPIDDRRASDFGLMKIDNSGRVIDFSEKPKGEALTKMRVDTTVLGLTPEQAASQPYIASMGIYVFKKDVLIKLLKEALERTDFGKEIIPDAAKDHNVQAYLFDDYWEDIGTIEAFYNANLALTQQPMPPFSFYDEEAPIYTRARYLPPTKLLDCHVTESIIGEGCILKNCRIQHSVLGVRSRIETGCMIEESLLMGADFYQASVERQCSIDKGDIPVGIGPDTIIRRAIIDKNARIGHDVKIINKDNVQEADRESQGFYIRSGIVVVLKNAVITDGTII
K0.5 (purified protein [10]): 0.08 ± 0.02 mM
K0.5 (purified protein [11]): 0.40 ± 0.04 mM
